From US7820656B2, “Pharmaceutical composition comprising N-aryl N′ morpholino/piperidino thiocarbamide derivatives for treating type II diabetes” (priority 2004, dated 2010)

Tests used:
HepG2 hepatocyte = assay: Measurement of glycogenesis ability (glycogen content, absorbance at 490 nm); type: cell-based; settings: for Glycogenesis (absorbance): absorbance at 490 nm, control 0.103; for Rate of Increase(%) of glycogenesis: versus control
Description: Thereto, ethanol was added to precipitate glycogen, followed by dissolving the precipitated glycogen in conc. sulfuric acid. Glucose produced was reacted with phenol to obtain a stained product. An absorbance of the stained product was measured at 490 nm (J Applied Physiol, 1970, 28, 234-236).

HepG2 cells = assay: Measurement of lipid peroxide (TBARS); type: cell-based; settings: for Average content of TBARS (%): control 100.0; for decrease of TBARS content compared with control group: HepG2, 24 hours (FIG. 4)
Description: HepG2 cells were cultured to administer N(4′-chlorophenyl) N′ morpholino thiocarbamide (10 μg/ml-100 μg/ml). After 24 hours, a cellular culture solution was removed to wash HepG2 cells with a phosphate buffer solution (PBS), prior to adding 0.1% Triton X-100 to detach the cells. The separated cell extracts were mixed with 20% acetic acid, pH 3.5 and 0.78% aqueous thiobarbituric acid solution. The mixture was heated at 95° C. for 1 hour and centrifuged at 3000 rpm for 15 minutes. The absorbance of the red supernatant was measured at 532 nm (Anal Biochem, 1979, 95, 351-358).

RAW 264.7 cells = assay: Measurement of anti-inflammatory action (nitrites, Griess reaction, LPS-stimulated); type: cell-based; settings: for Produced nitrites: 15 hours, control 3.3435, LPS 6.2775
Description: Nitrites accumulated in a cellular medium were measured as a marker of […] (NO) formation through a Griess reaction. RAW 264.7 cells were cultured in a medium containing DMEM, 10% FBS, penicillin (100 units/ml) and streptomycin sulfate (100 μg/ml) in a presence of 5% CO2, treated with N-aryl N′ morpholino/piperidino thiocarbamide derivatives in a content of 10 μg/ml and 100 μg/ml in a presence of LPS (1 μg/ml), followed by adding a Griess reagent 100 μl to the medium 100 μl 15 hours later to be cultured at room temperature for 10 minutes and measuring an absorbance at 540 nm. Nitrite content in a medium was evaluated by a standard curve using NaNO2.

mouse = assay: Oral glucose tolerance test; type: in vivo; settings: 80 mg/kg oral 1 h before glucose 2 g/kg oral; blood glucose at 30, 60, 120 min; compared with control (FIG. 1)
Description: A mouse was starved for 18 hours, prior to orally administering N(4′-chlorophenyl) N′ morpholino thiocarbamide to the mouse in a dose of 80 mg/kg. After an hour passed, Glucose of 2 g/kg was orally administered to measure blood glucose level in 30, 60, and 120 minutes using a blood glucose testing kit.

[1] = test system: streptozotocin-induced diabetic mouse; assay: Blood glucose lowering effect using a streptozotocin-induced diabetic mouse; type: in vivo; settings: 80 mg/kg oral a day, 5 days a week, 3 consecutive weeks; STZ control almost 550 mg/dl (FIG. 2)
Description: A mouse was used two weeks after streptozotocin (50 mM citrate buffer, pH 4.5) was intraperitoneally administered to the mouse (J Gene Med. 2003, 5, 417-424). […] Change of blood glucose level was measured once a week.

insulin receptor = molecular target: T1, insulin receptor (Mus musculus, UniProt P15208); assay: Phosphorylation measurement of insulin receptor tyrosin residues (hepatic lysate, immunoprecipitation, western blot); type: in vivo; settings: 80 mg/kg to mouse starved 16 hours, liver after 1 hour; compared with control (FIG. 5)
T1 construct: the mouse was dissected to separate a liver at 4° C; from tissue; host or cells: mouse liver (hepatic lysate)
T1 sequence (P15208 28-748 limits assumed): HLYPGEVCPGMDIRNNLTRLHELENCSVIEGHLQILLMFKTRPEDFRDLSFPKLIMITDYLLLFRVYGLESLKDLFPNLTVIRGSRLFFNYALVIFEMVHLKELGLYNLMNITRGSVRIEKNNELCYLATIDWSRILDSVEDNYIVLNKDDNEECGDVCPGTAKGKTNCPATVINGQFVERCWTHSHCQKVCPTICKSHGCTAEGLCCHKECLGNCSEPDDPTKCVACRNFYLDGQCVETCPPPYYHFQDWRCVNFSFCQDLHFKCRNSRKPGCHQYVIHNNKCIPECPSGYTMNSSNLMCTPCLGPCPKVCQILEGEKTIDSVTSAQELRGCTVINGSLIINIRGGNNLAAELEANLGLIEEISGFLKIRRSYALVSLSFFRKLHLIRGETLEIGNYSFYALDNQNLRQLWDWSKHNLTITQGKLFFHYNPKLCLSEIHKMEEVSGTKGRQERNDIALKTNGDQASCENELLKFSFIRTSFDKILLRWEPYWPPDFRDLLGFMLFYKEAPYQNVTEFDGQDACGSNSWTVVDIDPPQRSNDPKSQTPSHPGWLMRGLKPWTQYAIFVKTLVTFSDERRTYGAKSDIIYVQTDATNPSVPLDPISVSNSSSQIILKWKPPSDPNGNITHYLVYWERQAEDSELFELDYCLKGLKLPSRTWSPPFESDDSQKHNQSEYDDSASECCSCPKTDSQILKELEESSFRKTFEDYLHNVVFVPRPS
Description: N(4′-chlorophenyl) N′ morpholino thiocarbamide in a dose of 80 mg/kg was administered to a male IC mouse starved for 16 hours. After an hour passed, the mouse was dissected to separate a liver at 4° C. Hepatic homogenization was provided by a little modification of conventional method (Zhao, H., Xu, H., Moore, E., Meiri, N., Quon, M. J., Alkon, D., L., Insulin receptors and spatial memory. J. Biol. Chem. 274, 34893-34902, 1999). The separated liver was suspended in a buffer A containing 50 mM Tris HCl, pH 7.4, 1 mM EDTA, 1 mM EGTA, 150 mM NaCl, 1% Triton X-100, 0.5 mM PMSF, 1 mM Na3VO4, leupeptin and aprotinin 1 μg/ml, and homogenized using a Potter-Elvehjem homogenizer. The lysate was centrifuged at 10,000×g for 20 minutes. The supernatant was analyzed on proteins and preserved at −70° C.
An immunoprecipitation was carried out by a known technique (Kim S. J., Kahn, C. R. Insulin stimulates phosphorylation of c-Jun, c-Fos and Fos-related proteins in cultured adipocytes. J. Biol. Chem. 269, 11887-11892, 1994). An equal amount of proteins from hepatic lysate were cultured with an insulin receptor antibody at 4° C. for 1 hour, followed by thereto adding protein A-cephalos to precipitate the immune complex by a centrifuge. […]

[2] = Measurement of body weight; type: in vivo; settings: 80 mg/kg oral once a day for 3 consecutive weeks; administered group vs control (FIG. 6)
Description: Change of body weight was measured every week before and after N(4′-chlorophenyl) N′ morpholino thiocarbamide (80 mg/kg, PO) was administered.

[3] = Measurement of lethal dose 50%; type: in vivo, mouse; settings: mouse, in vivo; oral, mice
Description: (§1) The number of dead animal was counted after N(4′-chlorophenyl) N′ morpholino thiocarbamide was orally administered to 10 mice per a dose in a dose of 50 mg/kg, 500 mg/kg, and 5000 mg/kg.

mice = assay: Measurement of lethal dose 50%; type: in vivo, mouse; settings: oral, 50 mg/kg, 500 mg/kg and 5000 mg/kg, 10 mice per dose
Description: as §1

[4] = Dosage 10 ug/ml with LPS 1 μg/ml
[5] = Dosage 100 ug/ml with LPS 1 μg/ml

SMILES	Glycogenesis (absorbance) (HepG2 hepatocyte; Dosage 10 μg/ml)	Rate of Increase(%) of glycogenesis (HepG2 hepatocyte; Dosage 10 μg/ml)	Glycogenesis (absorbance) (HepG2 hepatocyte; Dosage 100 μg/ml)	Rate of Increase(%) of glycogenesis (HepG2 hepatocyte; Dosage 100 μg/ml)	Average content of TBARS (%) (HepG2 cells; Dosage 10 μg/ml)	Average content of TBARS (%) (HepG2 cells; Dosage 100 μg/ml)	% (produced nitrites; control 0, LPS 100) (RAW 264.7 cells; [4])	Produced nitrites (RAW 264.7 cells; [4])	% (produced nitrites; control 0, LPS 100) (RAW 264.7 cells; [5])	Produced nitrites (RAW 264.7 cells; [5])	blood glucose lowering effect in oral glucose tolerance test (mouse)	blood glucose level [1]	increase of glycogenesis compared with control group (HepG2 hepatocyte; 10 μg/ml, 24 hours, HepG2 (FIG. 3))	decrease of TBARS content compared with control group (HepG2 cells; 10 μg/ml)	decrease of TBARS content compared with control group (HepG2 cells; 100 μg/ml)	tyrosin phosphorylation of insulin receptors (insulin receptor)	change of body weight [2]	LD50 [3]	number of dead animals (mice)
Cc1ccccc1NC(=S)NN1CCOCC1 [2-methylphenyl]	0216	110%	0.238	131%	57.9%	60.5%	81.17%	5.3155 µM	66.14%	5.284 µM									
COc1cccc(NC(=S)NN2CCOCC2)c1 [3-methoxyphenyl]	0.191	85%	0.202	96%	81.9%	63.9%	81.19%	5.7255 µM	56.99%	5.0155 µM									
Cc1cccc(NC(=S)NN2CCOCC2)c1 [3-methylphenyl]	0.189	83%	0.325	216%	67.5%	66.3%	81.19%	5.7255 µM	61.83%	5.1575 µM									
S=C(Nc1ccc(Cl)cc1)NN1CCOCC1 [N(4′-chlorophenyl) N′ morpholino thiocarbamide]							4.81%	3.4845 µM	−9.85%	3.0545 µM	remarkable blood glucose lowering effect	300 to 400 mg/dL	49.89%	10.2%	32%	noticeable tyrosin phosphorylation of insulin receptors	no difference in body weight	> 5000 mg/kg	no mouse was dead
S=C(Nc1ccccc1)NN1CCOCC1 [phenyl (C11H15N3OS)]	0.301	195%	0.225	118%			62.37%	5.1735 µM	48.93%	4.779 µM									
S=C(Nc1ccccc1)NN1CCCCC1 [phenyl (C12H17N3S)]	0.196	90%	0.161	56%	61.4%	65.1%	75.26%	5.5515 µM	74.20%	5.5205 µM									
